Experimental data reported in US20150374680A1, “POCHOXIME CONJUGATES USEFUL FOR THE TREATMENT OF HSP90 RELATED PATHOLOGIES” (UNIVERSITE DE STRASBOURG, priority 2010, published 2015).
Read-outs that look alike come from different tables or passages of the source.

What was measured:
human HSP90α = biological target: T1, human HSP90α (Homo sapiens, UniProt P07900); test: biochemical; assay type: binding
T1 construct: purchased Stressgen SPP-776F

Her-2 in SkBr3 cells = test: Her-2 depletion in SkBr3 cells (pharmacodynamic marker of cellular efficacy); assay type: cell-based; settings: Homo sapiens, SK-BR-3; SkBr3 cells treated with the inhibitor overnight; read-out: PD (μM), pharmacodynamic EC50, Her-2 depletion
Experimental: FIG. 2. Cellular efficacy of pochoximes A1B5C1D1 (IC50). Depletion of Her-2 in SkBr3 cells were treated treated with the inhibitor for 18 h. […]

[1] = competition assay, read-out: Measure KD against human HSP90α

SMILES | Kd (human HSP90α; Measure KD against human HSP90α (nM)) [nM] | Kd (human HSP90α; [1]) [nM] | EC50 (human HSP90α) [nM] | EC50 (Her-2 in SkBr3 cells) [µM]
CC1CC=CC(NC(=O)CSC2OC(CO)C(O)C(O)C2O)CC=CC(=NOCC(=O)N2CCCCC2)Cc2cc(O)cc(O)c2C(=O)O1 (stereo not drawn) [As-14(6-R)] | 90 |  |  | 
CC(=O)N[C@H]1/C=C/C[C@@H](C)OC(=O)c2c(O)cc(O)cc2CC(=NOCC(=O)N2CCCCC2)/C=C/C1 [As-15(6-R)] |  | 343 |  | 
CC1CC=CCCC=CC(=NOCC(=O)N2CCCCC2)Cc2cc(O)cc(O)c2C(=O)O1 (stereo not drawn) [Compound A1B1C1D1] |  |  | 34 | ≤ 5
CCN(CC)C(=O)CON=C1C=CCCC=CCC(C)OC(=O)c2c(O)cc(O)cc2C1 (stereo not drawn) [Compound A1B1C1D18] |  |  | 540 | 
CCCC1CC=CCCC=CC(=NOCC(=O)N2CCCCC2)Cc2cc(O)cc(O)c2C(=O)O1 (stereo not drawn) [Compound A1B1C2D1] |  |  | 588 | > 10
CC1CCCCN1C(=O)CON=C1C=CCCC=CCCOC(=O)c2c(O)cc(O)cc2C1 (stereo not drawn) [Compound A1B1C4D2] |  |  | 886 | 
CC1CCCN(C(=O)CON=C2C=CCCC=CCCOC(=O)c3c(O)cc(O)cc3C2)C1 (stereo not drawn) [Compound A1B1C4D3] |  |  | 60 | ≤ 0.1
CC1CCN(C(=O)CON=C2C=CCCC=CCCOC(=O)c3c(O)cc(O)cc3C2)CC1 [Compound A1B1C4D4] |  |  | 70 | ≤ 0.5
CCC1CCCCN1C(=O)CON=C1C=CCCC=CCCOC(=O)c2c(O)cc(O)cc2C1 (stereo not drawn) [Compound A1B1C4D5] |  |  | 243 | < 1
CC1CCCC(C)N1C(=O)CON=C1C=CCCC=CCCOC(=O)c2c(O)cc(O)cc2C1 (stereo not drawn) [Compound A1B1C4D6] |  |  | 238 | < 5
O=C1OCCC=CCCC=CC(=NOCC(=O)N2CCC(c3ccccc3)CC2)Cc2cc(O)cc(O)c21 [Compound A1B1C4D7] |  |  | 2240 | > 10
O=C1OCCC=CCCC=CC(=NOCC(=O)N2CCC(Cc3ccccc3)CC2)Cc2cc(O)cc(O)c21 [Compound A1B1C4D8] |  |  | 5760 | > 10
O=C1OCCC=CCCC=CC(=NOCC(=O)N2CC=CCC2)Cc2cc(O)cc(O)c21 [Compound A1B1C4D9] |  |  | 22 | ≤ 0.5
O=C1OCCC=CCCC=CC(=NOCC(=O)N2CCOCC2)Cc2cc(O)cc(O)c21 [Compound A1B1C4D10] |  |  | 124 | ≤ 0.5
O=C1OCCC=CCCC=CC(=NOCC(=O)N2CCSCC2)Cc2cc(O)cc(O)c21 [Compound A1B1C4D11] |  |  | 70 | ≤ 0.5
O=C1OCCC=CCCC=CC(=NOCC(=O)N2CCNCC2)Cc2cc(O)cc(O)c21 [Compound A1B1C4D12] |  |  | 640 | ≤ 5
CN1CCN(C(=O)CON=C2C=CCCC=CCCOC(=O)c3c(O)cc(O)cc3C2)CC1 [Compound A1B1C4D13] |  |  | > 10000 | 
CC1CN(C(=O)CON=C2C=CCCC=CCCOC(=O)c3c(O)cc(O)cc3C2)CC(C)O1 (stereo not drawn) [Compound A1B1C4D14] |  |  | 337 | ≤ 5
O=C1OCCC=CCCC=CC(=NOCC(=O)N2CC=CC2)Cc2cc(O)cc(O)c21 [Compound A1B1C4D15] |  |  | 128 | ≤ 1
CC1C=CC(C)N1C(=O)CON=C1C=CCCC=CCCOC(=O)c2c(O)cc(O)cc2C1 (stereo not drawn) [Compound A1B1C4D16] |  |  | 119 | ≤ 1
O=C1OCCC=CCCC=CC(=NOCC(=O)N2CCCC2)Cc2cc(O)cc(O)c21 [Compound A1B1C4D17] |  |  | 219 | ≤ 0.5
CCN(CC)C(=O)CON=C1C=CCCC=CCCOC(=O)c2c(O)cc(O)cc2C1 [Compound A1B1C4D18] |  |  | 196 | ≤ 1
CC(C)CN(CC(C)C)C(=O)CON=C1C=CCCC=CCCOC(=O)c2c(O)cc(O)cc2C1 [Compound A1B1C4D19] |  |  | 94 | ≤ 5
CC(C)N(C(=O)CON=C1C=CCCC=CCCOC(=O)c2c(O)cc(O)cc2C1)C(C)C [Compound A1B1C4D20] |  |  | 162 | ≤ 1
O=C1OCCC=CCCC=CC(=NOCC(=O)N(Cc2ccccc2)Cc2ccccc2)Cc2cc(O)cc(O)c21 [Compound A1B1C4D21] |  |  | 2990 | > 10
O=C(CON=C1C=CCCC=CCCOC(=O)c2c(O)cc(O)cc2C1)NCc1ccccc1 [Compound A1B1C4D22] |  |  | 57 | ≤ 1
O=C1OCCC=CCCC=CC(=NOCC(=O)N2CCCCCC2)Cc2cc(O)cc(O)c21 [Compound A1B1C4D23] |  |  | 140 | 
O=C(CON=C1C=CCCC=CCCOC(=O)c2c(O)cc(O)cc2C1)NC1CCCCC1 [Compound A1B1C4D24] |  |  | 155 | ≤ 5

SMILES | Kd (human HSP90α; Measure KD against human HSP90α (nM)) [nM] | Kd (human HSP90α; [1]) [nM] | EC50 (human HSP90α) [nM] | EC50 (Her-2 in SkBr3 cells) [µM]
CCCN(CCC)C(=O)CON=C1C=CCCC=CCCOC(=O)c2c(O)cc(O)cc2C1 [Compound A1B1C4D25] |  |  | 116 | ≤ 1
COC(=O)CON=C1C=CCCC=CCCOC(=O)c2c(O)cc(O)cc2C1 [Compound A1B1C4D26] |  |  | 372 | ≤ 10
CCN(CC)C(=O)CON=C1C=C(C)CCC=CCC(C)OC(=O)c2c(O)cc(O)cc2C1 (stereo not drawn) [Compound A1B3C1D18] |  |  | 200 | ≤ 1
CCCC1CC=CCCC(C)=CC(=NOCC(=O)N2CCCCC2)Cc2cc(O)cc(O)c2C(=O)O1 (stereo not drawn) [Compound A1B3C2D1] |  |  | 196 | ≤ 1
CCCC1CC=CCCC(C)=CC(=NOCC(=O)N(CC)CC)Cc2cc(O)cc(O)c2C(=O)O1 (stereo not drawn) [Compound A1B3C2D18] |  |  | 4660 | > 10
CC1=CC(=NOCC(=O)N2CCCCC2)Cc2cc(O)cc(O)c2C(=O)OCCC=CCC1 [Compound A1B3C4D1] |  |  | 46 | ≤ 0.5
CC1C=CCC(C)OC(=O)c2c(O)cc(O)cc2CC(=NOCC(=O)N2CCCCC2)C=CC1 (stereo not drawn) [Compound A1B4C1D1] |  |  | 32 | 
CCCC1CC=CC(C)CC=CC(=NOCC(=O)N2CCCCC2)Cc2cc(O)cc(O)c2C(=O)O1 (stereo not drawn) [Compound A1B4C2D1] |  |  | 811 | 
CC1C=CCCOC(=O)c2c(O)cc(O)cc2CC(=NOCC(=O)N2CCCCC2)C=CC1 (stereo not drawn) [Compound A1B4C4D1] |  |  | 21 | ≤ 0.5
CC1CC=CC(O)CC=CC(=NOCC(=O)N2CCCCC2)Cc2cc(O)cc(O)c2C(=O)O1 (stereo not drawn) [Compound A1B5C1D1] |  |  | 20 | 
CC1CC=CCCC=CC(=NOCC(=O)N2CCCCC2)Cc2c(Cl)c(O)cc(O)c2C(=O)O1 (stereo not drawn) [Compound A2B1C1D1] |  |  | 39 | 
CCCC1CC=CCCC=CC(=NOCC(=O)N2CCCCC2)Cc2c(Cl)c(O)cc(O)c2C(=O)O1 (stereo not drawn) [Compound A2B1C2D1] |  |  | 96 | ≤ 5
O=C1NCCC=CCCC=CC(=NOCC(=O)N2CCCCC2)Cc2c(Cl)c(O)cc(O)c21 [Compound A2B1C3D1] |  |  | 198 | ≤ 1
[N-]=[N+]=NCC1CC=CCCC=CC(=NOCC(=O)N2CCCCC2)Cc2c(Cl)c(O)cc(O)c2C(=O)O1 (stereo not drawn) [Compound A2B1C7D1] |  |  | 79 | 
C=CC1=CCCC=CC(=NOCC(=O)N2CCCCC2)Cc2c(Cl)c(O)cc(O)c2C(=O)OCC1 [Compound A2B1C8D1] |  |  | 432 | ≤ 1
CCCC1CC=CCCC(C)=CC(=NOCC(=O)N(CC)CC)Cc2c(Cl)c(O)cc(O)c2C(=O)O1 (stereo not drawn) [Compound A2B3C2D18] |  |  | 900 | > 10
CC1C=CCC(C)OC(=O)c2c(O)cc(O)c(Cl)c2CC(=NOCC(=O)N2CCCCC2)C=CC1 (stereo not drawn) [Compound A2B4C1D1] |  |  | 154 | ≤ 1
CCCC1CC=CC(C)CC=CC(=NOCC(=O)N2CCCCC2)Cc2c(Cl)c(O)cc(O)c2C(=O)O1 (stereo not drawn) [Compound A2B4C2D1] |  |  | 1750 | ≤ 10
CC1CC=CC(O)CC=CC(=NOCC(=O)N2CCCCC2)Cc2c(Cl)c(O)cc(O)c2C(=O)O1 (stereo not drawn) [Compound A2B5C1D1] |  |  | 10 | 
O=C1OCCC=CC(O)CC=CC(=NOCC(=O)N2CCCCC2)Cc2c(Cl)c(O)cc(O)c21 (stereo not drawn) [Compound A2B5C4D1] |  |  | 18 | 
C[C@@H]1C/C=C/[C@H](N)C/C=C/C(=NOCC(=O)N2CCCCC2)Cc2cc(O)cc(O)c2C(=O)O1 [aminopochoxime E] |  | 229 |  | 
CC1CC=CC(N)CC=CC(=NOCC(=O)N2CCCCC2)Cc2cc(O)cc(O)c2C(=O)O1 (stereo not drawn) [epi-aminopochoxime E] |  | 34 |  | 
C[C@@H]1C/C=C/[C@@H](O)C/C=C/C(=NOCC(=O)N2CCCCC2)Cc2c(Cl)c(O)cc(O)c2C(=O)O1 [epi-pochoxime E] |  | 38 |  | 
C[C@@H]1C/C=C/[C@@H](O)C/C=C/C(=NOCC(=O)N2CCCCC2)Cc2cc(O)cc(O)c2C(=O)O1 [epi-pochoxime F] |  | 14 |  | 
CC1CC=CCCC=CC(=NOCC(=O)N2CCCCC2)Cc2c(Cl)c(O)cc(O)c2C(=O)O1 (stereo not drawn) [pochoxime D] |  | 22 |  | 
C[C@@H]1C/C=C/[C@H](O)C/C=C/C(=NOCC(=O)N2CCCCC2)Cc2c(Cl)c(O)cc(O)c2C(=O)O1 [pochoxime E] |  | 34 |  | 
C[C@@H]1C/C=C/[C@H](O)C/C=C/C(=NOCC(=O)N2CCCCC2)Cc2cc(O)cc(O)c2C(=O)O1 [pochoxime F] |  | 22 |  | 
